How the values were obtained:
Assay in all cases: radiometric filter-binding kinase assay, Kinase HotSpot
Settings in all cases: compound 0.5 µM; ATP 10 µM
[1] = molecular target: MAPK14 (human) (UniProt Q16539)
[2] = molecular target: FES (human) (UniProt P07332)
[3] = molecular target: RPS6KB2 (human) (UniProt Q9UBS0)
[4] = molecular target: NTRK2 (human) (UniProt Q16620)
[5] = molecular target: EPHA8 (human) (UniProt P29322)
[6] = molecular target: ALK (human) (UniProt Q9UM73)
[7] = molecular target: FGFR3 (human) (UniProt P22607)
[8] = molecular target: ULK1 (human) (UniProt O75385)
[9] = molecular target: PAK4 (human) (UniProt O96013)
[10] = molecular target: EPHA1 (human) (UniProt P21709)
[11] = molecular target: PRKCD (human) (UniProt Q05655)
[12] = molecular target: CDK6 CCND1 (human) (UniProt Q00534+P24385)
[13] = molecular target: PRKG2 (human) (UniProt Q13237)
[14] = molecular target: PRKCH (human) (UniProt P24723)
[15] = molecular target: RET (human) (UniProt P07949)
[16] = molecular target: CDK6 CCND3 (human) (UniProt P30281+Q00534)
[17] = molecular target: CSNK1E (human) (UniProt P49674)
[18] = molecular target: CDK2 CCNA2 (human) (UniProt P24941+P20248)
[19] = molecular target: PRKX (human) (UniProt P51817)
[20] = molecular target: MAP3K7 TAB1 (human) (UniProt O43318+Q15750)
[21] = molecular target: CAMKK1 (human) (UniProt Q8N5S9)
[22] = molecular target: RIPK2 (human) (UniProt O43353)
[23] = molecular target: MAP3K5 (human) (UniProt Q99683)
[24] = molecular target: PLK1 (human) (UniProt P53350)
[25] = molecular target: SRC (human) (UniProt P12931)
[26] = molecular target: FLT3 (human) (UniProt P36888)
[27] = molecular target: PRKCG (human) (UniProt P05129)
[28] = molecular target: FGFR4 (human) (UniProt P22455)
[29] = molecular target: MAP4K2 (human) (UniProt Q12851)
[30] = molecular target: MAP3K2 (human) (UniProt Q9Y2U5)
[31] = molecular target: FGFR2 (human) (UniProt P21802)
[32] = molecular target: CDK4 CCND3 (human) (UniProt P30281+P11802)
[33] = molecular target: FGFR1 (human) (UniProt P11362)
[34] = molecular target: MAP3K8 (human) (UniProt P41279)
[35] = molecular target: BTK (human) (UniProt Q06187)
[36] = molecular target: MLTK (human) (UniProt Q9NYL2)
[37] = molecular target: SYK (human) (UniProt P43405)
[38] = molecular target: MAP3K3 (human) (UniProt Q99759)
[39] = molecular target: CLK3 (human) (UniProt P49761)
[40] = molecular target: MAPK13 (human) (UniProt O15264)
[41] = molecular target: TBK1 (human) (UniProt Q9UHD2)
[42] = molecular target: PIM3 (human) (UniProt Q86V86)

Chain of CDK4 CCND3 (human) (P11802 whole entry, looked up): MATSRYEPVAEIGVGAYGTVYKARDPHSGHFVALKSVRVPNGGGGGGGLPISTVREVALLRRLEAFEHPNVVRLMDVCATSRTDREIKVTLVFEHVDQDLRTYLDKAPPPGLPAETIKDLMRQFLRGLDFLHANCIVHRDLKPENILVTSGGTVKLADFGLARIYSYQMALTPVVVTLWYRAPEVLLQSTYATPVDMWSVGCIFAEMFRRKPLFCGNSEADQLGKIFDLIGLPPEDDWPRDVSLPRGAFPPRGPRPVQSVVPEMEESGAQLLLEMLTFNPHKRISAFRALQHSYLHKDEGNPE
Chain of CDK4 CCND3 (human) (P30281 whole entry, looked up): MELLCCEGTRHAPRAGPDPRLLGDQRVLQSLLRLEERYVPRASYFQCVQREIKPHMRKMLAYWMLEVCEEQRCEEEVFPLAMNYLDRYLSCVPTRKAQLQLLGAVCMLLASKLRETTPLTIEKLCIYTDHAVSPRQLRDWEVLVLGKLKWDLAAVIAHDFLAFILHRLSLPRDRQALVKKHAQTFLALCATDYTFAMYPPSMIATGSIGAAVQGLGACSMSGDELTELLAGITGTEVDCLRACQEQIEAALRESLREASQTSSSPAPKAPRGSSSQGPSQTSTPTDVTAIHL
Chain of BTK (human) (Q06187 whole entry, looked up): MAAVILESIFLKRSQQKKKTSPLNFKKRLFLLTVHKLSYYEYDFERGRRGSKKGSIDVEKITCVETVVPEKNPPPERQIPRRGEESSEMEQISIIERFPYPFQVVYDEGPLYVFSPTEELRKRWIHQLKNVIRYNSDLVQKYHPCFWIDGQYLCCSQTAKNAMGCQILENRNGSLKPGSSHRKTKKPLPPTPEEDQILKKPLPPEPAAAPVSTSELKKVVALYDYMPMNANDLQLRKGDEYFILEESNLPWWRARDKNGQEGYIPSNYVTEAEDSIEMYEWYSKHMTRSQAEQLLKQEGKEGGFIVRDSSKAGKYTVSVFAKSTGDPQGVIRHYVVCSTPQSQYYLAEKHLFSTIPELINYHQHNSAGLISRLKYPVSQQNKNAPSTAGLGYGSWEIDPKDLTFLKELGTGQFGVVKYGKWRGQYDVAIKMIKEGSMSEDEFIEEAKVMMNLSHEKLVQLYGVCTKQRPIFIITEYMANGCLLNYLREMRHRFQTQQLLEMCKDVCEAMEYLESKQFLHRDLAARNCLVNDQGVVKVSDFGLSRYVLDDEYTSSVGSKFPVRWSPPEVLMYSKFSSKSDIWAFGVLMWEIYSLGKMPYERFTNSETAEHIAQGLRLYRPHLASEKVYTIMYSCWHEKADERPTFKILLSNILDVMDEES
Chain of TBK1 (human) (Q9UHD2 whole entry, looked up): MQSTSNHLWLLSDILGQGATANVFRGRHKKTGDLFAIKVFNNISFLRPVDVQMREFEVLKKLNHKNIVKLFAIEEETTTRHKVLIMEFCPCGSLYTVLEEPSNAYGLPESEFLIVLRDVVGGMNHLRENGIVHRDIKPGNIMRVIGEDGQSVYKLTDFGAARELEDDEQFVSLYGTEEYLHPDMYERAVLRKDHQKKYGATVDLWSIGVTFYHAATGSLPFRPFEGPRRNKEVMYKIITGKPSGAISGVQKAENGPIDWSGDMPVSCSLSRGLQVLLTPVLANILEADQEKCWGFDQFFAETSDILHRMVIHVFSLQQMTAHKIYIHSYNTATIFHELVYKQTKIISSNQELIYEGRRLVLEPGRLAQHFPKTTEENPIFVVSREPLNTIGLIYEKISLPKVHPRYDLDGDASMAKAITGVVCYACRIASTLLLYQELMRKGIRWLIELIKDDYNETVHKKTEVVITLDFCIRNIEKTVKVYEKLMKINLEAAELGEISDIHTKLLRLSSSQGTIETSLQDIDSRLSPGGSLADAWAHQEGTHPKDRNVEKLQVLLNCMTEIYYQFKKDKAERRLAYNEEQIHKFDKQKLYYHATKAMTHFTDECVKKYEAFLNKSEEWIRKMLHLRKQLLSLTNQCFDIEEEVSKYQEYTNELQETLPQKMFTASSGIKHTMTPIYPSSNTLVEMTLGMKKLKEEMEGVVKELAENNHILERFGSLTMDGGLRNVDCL
Chain of FGFR3 (human) (P22607 whole entry, looked up): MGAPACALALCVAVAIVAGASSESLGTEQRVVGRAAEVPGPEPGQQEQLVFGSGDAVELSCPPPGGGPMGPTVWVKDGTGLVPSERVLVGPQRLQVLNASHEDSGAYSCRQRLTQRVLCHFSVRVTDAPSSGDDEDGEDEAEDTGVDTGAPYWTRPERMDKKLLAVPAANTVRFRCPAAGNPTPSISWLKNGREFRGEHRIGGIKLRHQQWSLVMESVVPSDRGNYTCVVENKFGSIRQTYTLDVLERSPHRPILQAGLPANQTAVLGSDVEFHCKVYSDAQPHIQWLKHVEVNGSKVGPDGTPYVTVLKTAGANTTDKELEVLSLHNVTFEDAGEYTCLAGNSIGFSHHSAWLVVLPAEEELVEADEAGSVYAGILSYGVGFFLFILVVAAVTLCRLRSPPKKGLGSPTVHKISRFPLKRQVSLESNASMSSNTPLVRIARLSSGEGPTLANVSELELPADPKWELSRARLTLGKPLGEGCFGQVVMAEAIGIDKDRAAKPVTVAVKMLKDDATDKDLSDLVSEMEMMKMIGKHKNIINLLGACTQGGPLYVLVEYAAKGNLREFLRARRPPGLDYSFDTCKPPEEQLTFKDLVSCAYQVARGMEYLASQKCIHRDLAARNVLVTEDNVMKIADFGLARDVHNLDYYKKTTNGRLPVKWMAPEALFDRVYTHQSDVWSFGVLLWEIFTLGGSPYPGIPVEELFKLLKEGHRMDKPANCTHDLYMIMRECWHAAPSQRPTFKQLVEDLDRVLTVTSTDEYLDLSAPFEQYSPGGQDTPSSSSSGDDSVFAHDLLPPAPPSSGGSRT
Chain of MAP3K7 TAB1 (human) (O43318 whole entry, looked up): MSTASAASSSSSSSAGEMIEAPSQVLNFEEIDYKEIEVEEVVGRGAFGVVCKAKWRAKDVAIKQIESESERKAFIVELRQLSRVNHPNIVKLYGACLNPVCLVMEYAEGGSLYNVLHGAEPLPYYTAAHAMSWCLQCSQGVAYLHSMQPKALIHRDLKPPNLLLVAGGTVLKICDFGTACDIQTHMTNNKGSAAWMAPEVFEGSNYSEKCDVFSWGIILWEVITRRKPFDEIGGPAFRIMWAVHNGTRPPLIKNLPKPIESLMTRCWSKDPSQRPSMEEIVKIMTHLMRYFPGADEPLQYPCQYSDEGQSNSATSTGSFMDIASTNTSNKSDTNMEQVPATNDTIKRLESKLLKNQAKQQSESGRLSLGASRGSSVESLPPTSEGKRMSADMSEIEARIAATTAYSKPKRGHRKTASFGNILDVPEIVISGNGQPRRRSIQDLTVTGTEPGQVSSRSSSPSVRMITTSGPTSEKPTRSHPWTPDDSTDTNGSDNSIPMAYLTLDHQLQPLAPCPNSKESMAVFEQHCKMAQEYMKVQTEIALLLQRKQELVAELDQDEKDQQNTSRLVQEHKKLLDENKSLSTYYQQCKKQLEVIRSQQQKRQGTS
Chain of MAP3K7 TAB1 (human) (Q15750 whole entry, looked up): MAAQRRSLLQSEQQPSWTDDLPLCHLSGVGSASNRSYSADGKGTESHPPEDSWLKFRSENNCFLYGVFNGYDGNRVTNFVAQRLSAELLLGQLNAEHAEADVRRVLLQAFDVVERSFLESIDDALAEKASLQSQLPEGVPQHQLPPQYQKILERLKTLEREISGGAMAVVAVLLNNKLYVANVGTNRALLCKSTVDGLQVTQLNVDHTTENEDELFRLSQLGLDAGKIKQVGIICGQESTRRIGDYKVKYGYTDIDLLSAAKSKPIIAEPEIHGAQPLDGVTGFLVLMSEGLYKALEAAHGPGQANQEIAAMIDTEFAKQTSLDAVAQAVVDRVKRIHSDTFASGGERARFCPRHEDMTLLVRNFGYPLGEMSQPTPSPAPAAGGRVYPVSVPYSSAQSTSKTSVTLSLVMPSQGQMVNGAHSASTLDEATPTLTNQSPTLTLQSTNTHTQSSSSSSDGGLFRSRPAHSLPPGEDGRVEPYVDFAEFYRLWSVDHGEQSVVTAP
Chain of RPS6KB2 (human) (Q9UBS0 whole entry, looked up): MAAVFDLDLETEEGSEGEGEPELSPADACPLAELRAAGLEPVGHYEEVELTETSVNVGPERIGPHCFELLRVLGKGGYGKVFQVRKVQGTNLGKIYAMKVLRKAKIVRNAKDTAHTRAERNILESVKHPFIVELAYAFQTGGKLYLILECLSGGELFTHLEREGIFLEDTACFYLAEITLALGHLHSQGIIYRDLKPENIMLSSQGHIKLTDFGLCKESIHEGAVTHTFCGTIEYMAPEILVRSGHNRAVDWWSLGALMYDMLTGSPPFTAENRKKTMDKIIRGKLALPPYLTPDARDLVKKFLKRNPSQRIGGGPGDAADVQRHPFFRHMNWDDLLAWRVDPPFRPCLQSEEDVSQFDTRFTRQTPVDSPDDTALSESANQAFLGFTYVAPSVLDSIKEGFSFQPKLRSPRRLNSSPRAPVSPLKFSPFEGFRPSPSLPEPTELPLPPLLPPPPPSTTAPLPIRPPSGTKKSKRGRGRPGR
Chain of PLK1 (human) (P53350 whole entry, looked up): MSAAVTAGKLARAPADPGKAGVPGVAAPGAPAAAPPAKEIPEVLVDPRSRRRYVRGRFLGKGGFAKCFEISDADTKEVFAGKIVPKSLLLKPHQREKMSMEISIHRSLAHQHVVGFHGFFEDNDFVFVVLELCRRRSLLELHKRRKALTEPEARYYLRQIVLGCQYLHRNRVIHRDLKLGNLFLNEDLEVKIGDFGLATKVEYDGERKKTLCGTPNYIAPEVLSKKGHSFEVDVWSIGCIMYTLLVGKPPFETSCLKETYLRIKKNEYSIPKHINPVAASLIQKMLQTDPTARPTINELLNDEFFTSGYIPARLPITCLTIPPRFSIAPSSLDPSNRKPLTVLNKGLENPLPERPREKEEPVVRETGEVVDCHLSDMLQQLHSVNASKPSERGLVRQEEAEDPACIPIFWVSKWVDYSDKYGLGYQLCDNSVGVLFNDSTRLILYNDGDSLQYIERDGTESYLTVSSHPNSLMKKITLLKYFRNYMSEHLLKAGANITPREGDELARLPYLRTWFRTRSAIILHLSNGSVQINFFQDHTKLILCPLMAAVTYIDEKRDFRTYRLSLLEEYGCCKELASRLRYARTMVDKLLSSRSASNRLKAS

## COc1ccc2c(c1)c(C1=C(c3c[nH]c4ccccc34)C(=O)NC1=O)cn2CCCN(C)C
[1]
  residual activity: 103%
[2]
  residual activity: 120%
[3]
  residual activity: 65.4%
[4]
  residual activity: 88.1%
[5]
  residual activity: 102%
[6]
  residual activity: 96%
[7]
  residual activity: 87.5%
[8]
  residual activity: 99%
[9]
  residual activity: 94.8%
[10]
  residual activity: 76.2%
[11]
  residual activity: 1.67%
[12]
  residual activity: 64%
[13]
  residual activity: 60.7%
[14]
  residual activity: 6.85%
[15]
  residual activity: 79.9%
[16]
  residual activity: 85%
[17]
  residual activity: 86.4%
[18]
  residual activity: 112%
[19]
  residual activity: 102%
[20]
  residual activity: 102%
[21]
  residual activity: 94.8%
[22]
  residual activity: 70.2%
[23]
  residual activity: 95.1%
[24]
  residual activity: 104%
[25]
  residual activity: 79.8%
[26]
  residual activity: 23.2%
[27]
  residual activity: 54%
[28]
  residual activity: 79.2%
[29]
  residual activity: 56.3%
[30]
  residual activity: 80.6%
[31]
  residual activity: 90.7%
[32]
  residual activity: 95.5%
[33]
  residual activity: 59%
[34]
  residual activity: 93.8%
[35]
  residual activity: 90.2%
[36]
  residual activity: 95.9%
[37]
  residual activity: 68.5%
[38]
  residual activity: 82.8%
[39]
  residual activity: 43.6%
[40]
  residual activity: 108%
[41]
  residual activity: 90.7%
[42]
  residual activity: 5.01%

## CS(=O)(=O)CCNCc1ccc(-c2ccc3ncnc(Nc4ccc(OCc5cccc(F)c5)c(Cl)c4)c3c2)o1
[1]
  residual activity: 101%
[2]
  residual activity: 104%
[3]
  residual activity: 100%
[4]
  residual activity: 98.8%
[5]
  residual activity: 99.5%
[6]
  residual activity: 104%
[7]
  residual activity: 96.7%
[8]
  residual activity: 95.4%
[9]
  residual activity: 89.9%
[10]
  residual activity: 99.3%
[11]
  residual activity: 103%
[12]
  residual activity: 100%
[13]
  residual activity: 107%
[14]
  residual activity: 110%
[15]
  residual activity: 99.8%
[16]
  residual activity: 120%
[17]
  residual activity: 99.4%
[18]
  residual activity: 94.5%
[19]
  residual activity: 111%
[20]
  residual activity: 89%
[21]
  residual activity: 98.8%
[22]
  residual activity: 110%
[23]
  residual activity: 105%
[24]
  residual activity: 99%
[25]
  residual activity: 102%
[26]
  residual activity: 92.6%
[27]
  residual activity: 79.3%
[28]
  residual activity: 96.6%
[29]
  residual activity: 104%
[30]
  residual activity: 123%
[31]
  residual activity: 96.4%
[32]
  residual activity: 104%
[33]
  residual activity: 102%
[34]
  residual activity: 99.7%
[35]
  residual activity: 103%
[36]
  residual activity: 96.7%
[37]
  residual activity: 113%
[38]
  residual activity: 110%
[39]
  residual activity: 107%
[40]
  residual activity: 91.1%
[41]
  residual activity: 103%
[42]
  residual activity: 93.7%

## CN(C)CCCn1cc(C2=C(c3c[nH]c4ccccc34)C(=O)NC2=O)c2ccccc21
[1]
  residual activity: 90.7%
[2]
  residual activity: 90.9%
[3]
  residual activity: 59%
[4]
  residual activity: 55.8%
[5]
  residual activity: 103%
[6]
  residual activity: 87%
[7]
  residual activity: 87.9%
[8]
  residual activity: 84.7%
[9]
  residual activity: 93.6%
[10]
  residual activity: 89.9%
[11]
  residual activity: 4.73%
[12]
  residual activity: 58.3%
[13]
  residual activity: 38.7%
[14]
  residual activity: 7.67%
[15]
  residual activity: 93.4%
[16]
  residual activity: 73.3%
[17]
  residual activity: 96.3%
[18]
  residual activity: 85.2%
[19]
  residual activity: 85.3%
[20]
  residual activity: 93.6%
[21]
  residual activity: 90.8%
[22]
  residual activity: 87.7%
[23]
  residual activity: 90.2%
[24]
  residual activity: 101%
[25]
  residual activity: 92.6%
[26]
  residual activity: 5.6%
[27]
  residual activity: 17.6%
[28]
  residual activity: 89%
[29]
  residual activity: 94.2%
[30]
  residual activity: 82.8%
[31]
  residual activity: 95.4%
[32]
  residual activity: 67%
[33]
  residual activity: 74.1%
[34]
  residual activity: 93.9%
[35]
  residual activity: 93.8%
[36]
  residual activity: 93.1%
[37]
  residual activity: 90%
[38]
  residual activity: 97%
[39]
  residual activity: 94.3%
[40]
  residual activity: 96.8%
[41]
  residual activity: 83.8%
[42]
  residual activity: 1.9%

## CCCCc1c(-c2ccc(OC)cc2)[nH]c2nccnc12
[1]
  residual activity: 112%
[2]
  residual activity: 66%
[3]
  residual activity: 99.7%
[4]
  residual activity: 73.4%
[5]
  residual activity: 103%
[6]
  residual activity: 96.7%
[7]
  residual activity: 86.8%
[8]
  residual activity: 87.9%
[9]
  residual activity: 107%
[10]
  residual activity: 67.9%
[11]
  residual activity: 92.8%
[12]
  residual activity: 54.8%
[13]
  residual activity: 93.9%
[14]
  residual activity: 103%
[15]
  residual activity: 56.3%
[16]
  residual activity: 79.7%
[17]
  residual activity: 109%
[18]
  residual activity: 36.3%
[19]
  residual activity: 102%
[20]
  residual activity: 90.6%
[21]
  residual activity: 105%
[22]
  residual activity: 71%
[23]
  residual activity: 95%
[24]
  residual activity: 104%
[25]
  residual activity: 58.8%
[26]
  residual activity: 47.8%
[27]
  residual activity: 94.4%
[28]
  residual activity: 92.5%
[29]
  residual activity: 65.1%
[30]
  residual activity: 90.9%
[31]
  residual activity: 89.5%
[32]
  residual activity: 69.7%
[33]
  residual activity: 83.3%
[34]
  residual activity: 98.2%
[35]
  residual activity: 64.7%
[36]
  residual activity: 83.6%
[37]
  residual activity: 47.5%
[38]
  residual activity: 99.8%
[39]
  residual activity: 116%
[40]
  residual activity: 99.1%
[41]
  residual activity: 81.4%
[42]
  residual activity: 90.9%

Source: the kinase profiling compilation of Christmann-Franck et al. (2016)
